Results from EP0104070A2, “Fungicidal N-phenylcarbamates” (priority 1982, dated 1984).

tested on: Pyricularia oryzae; assay: not given; format: in vivo; details: in vivo

| SMILES | Prevention value (%) |
| --- | --- |
| CCOP(=O)(Sc1ccccc1)Sc1ccccc1 [Edifenphos] | 97 |

same assay, conditions: rice seedlings of 3-leaf stage, spray, 1000 ppm active ingredient, 28°C for 3 days

| SMILES | Prevention value (%) |
| --- | --- |
| CCOc1c(Cl)cc(NC(=S)OC)cc1COC [Compound No. 13] | 97 |

tested on: wheat (var: Norin No. 61); assay: Phytotoxicity to crop plants (Experiment 9), wheat; format: in vivo; parameters: key: -: No abnormality; +: Abnormality due to phytotoxicity observed in a part of crop plants; ++: Abnormality due to phytotoxicity observed in entire crop plants; +++: Crop plants withered due to phytotoxicity; details: in vivo
From the text: (§1) Phytotoxicity to crop plants:-

| SMILES | Phytotoxicity Wheat |
| --- | --- |
| O=C(Nc1cccc(Cl)c1)OCC#CCCl | - |

same assay, conditions: spray, 1000 ppm active ingredient, 10 days

| SMILES | Phytotoxicity Wheat |
| --- | --- |
| CCOc1c(Cl)cc(NC(=S)OC)cc1COC [Compound No. 13] | - |
| O=C(Nc1cccc(Cl)c1)OCCCl [CEPC] | - |
| CCOc1c(C)cc(NC(=S)OCCF)cc1C [Compound No. 9] | - |
| CCOc1c(Cl)cc(NC(=S)OC(C)C)cc1COC [Compound No. 14, (3-chloro-4-ethoxy-5-methoxymethyl)thiocarbanilic acid O-isopropyl ester] | - |
| COC(=O)Nc1ccc(Cl)c(Cl)c1 [Swep] | ++ |

tested on: apple (var: Kogyoku); assay: Phytotoxicity to crop plants (Experiment 9), apple; format: in vivo; parameters: key: -: No abnormality; +: Abnormality due to phytotoxicity observed in a part of crop plants; ++: Abnormality due to phytotoxicity observed in entire crop plants; +++: Crop plants withered due to phytotoxicity; details: in vivo
From the text: as §1

| SMILES | Phytotoxicity Apple |
| --- | --- |
| O=C(Nc1cccc(Cl)c1)OCC#CCCl | ++ |

same assay, conditions: spray, 1000 ppm active ingredient, 10 days

| SMILES | Phytotoxicity Apple |
| --- | --- |
| CCOc1c(Cl)cc(NC(=S)OC)cc1COC [Compound No. 13] | - |
| O=C(Nc1cccc(Cl)c1)OCCCl [CEPC] | ++ |
| CCOc1c(C)cc(NC(=S)OCCF)cc1C [Compound No. 9] | - |
| CCOc1c(Cl)cc(NC(=S)OC(C)C)cc1COC [Compound No. 14, (3-chloro-4-ethoxy-5-methoxymethyl)thiocarbanilic acid O-isopropyl ester] | - |
| COC(=O)Nc1ccc(Cl)c(Cl)c1 [Swep] | ++ |

tested on: peanut (var: Chiba hanryusei); assay: Phytotoxicity to crop plants (Experiment 9), peanut; format: in vivo; parameters: key: -: No abnormality; +: Abnormality due to phytotoxicity observed in a part of crop plants; ++: Abnormality due to phytotoxicity observed in entire crop plants; +++: Crop plants withered due to phytotoxicity; details: spray, 1000 ppm active ingredient, 10 days
From the text: as §1

| SMILES | Phytotoxicity Peanut |
| --- | --- |
| O=C(Nc1cccc(Cl)c1)OCC#CCCl | ++ |
| CCOc1c(Cl)cc(NC(=S)OC)cc1COC [Compound No. 13] | - |
| O=C(Nc1cccc(Cl)c1)OCCCl [CEPC] | ++ |
| CCOc1c(C)cc(NC(=S)OCCF)cc1C [Compound No. 9] | - |
| CCOc1c(Cl)cc(NC(=S)OC(C)C)cc1COC [Compound No. 14, (3-chloro-4-ethoxy-5-methoxymethyl)thiocarbanilic acid O-isopropyl ester] | - |
| COC(=O)Nc1ccc(Cl)c(Cl)c1 [Swep] | + |

tested on: drug-resistant strain of Venturia nashicola; assay: Preventive effect on scab of pear (Experiment 3), drug-resistant strain; details: pear seedlings, spray, 200 ppm active ingredient
Experimental: (§2) The disease severity was calculated according to the following equation: [formula]
(§3) The prevention value was calculated according to the following equation: [formula]
(§4) Preventive effect on scab of pear (Venturia nashicola):-
(§5) A plastic pot of 90 ml volume was filled with sandy soil, and seeds of pear (var: Chojuro) were sowed therein. Cultivation was carried out in a greenhouse for 20 days. Onto the resulting seedlings, the test compound formulated in emulsifiable concentrate or wettable powder and diluted with water was sprayed at a rate of 10 ml per pot. […] The resulting plants were placed at 20°C under a condition of high humidity for 3 days and then at 20°C under irradiation with a fluorescent lamp for 20 days.

| SMILES | Prevention value when inoculated with drug-resistant strain (%) |
| --- | --- |
| CCCCNC(=O)n1c(NC(=O)OC)nc2ccccc21 [Benomyl, methyl 1-(butylcarbamoyl)benzimidazol-2-ylcarba-mate] | 0 |

tested on: drug-sensitive strain of Venturia nashicola; assay: Preventive effect on scab of pear (Experiment 3), drug-sensitive strain; details: pear seedlings, spray, 200 ppm active ingredient
Experimental: as §2, §3, §4, §5

| SMILES | Prevention value when inoculated with drug-sensitive strain (%) |
| --- | --- |
| CCCCNC(=O)n1c(NC(=O)OC)nc2ccccc21 [Benomyl, methyl 1-(butylcarbamoyl)benzimidazol-2-ylcarba-mate] | 100 |

tested on: drug-resistant strain of Penicillium italicum; assay: Preventive effect on green mold of orange (Experiment 7), drug-resistant strain; details: orange fruits immersed for 1 minute, 200 ppm active ingredient, 24 days

| SMILES | Prevention value when inoculated with drug-resistant strain (%) |
| --- | --- |
| CCOc1c(C)cc(NC(=S)OCCF)cc1C [Compound No. 9] | 94 |
| CCCCNC(=O)n1c(NC(=O)OC)nc2ccccc21 [Benomyl, methyl 1-(butylcarbamoyl)benzimidazol-2-ylcarba-mate] | 0 |

tested on: drug-sensitive strain of Penicillium italicum; assay: Preventive effect on green mold of orange (Experiment 7), drug-sensitive strain; details: orange fruits immersed for 1 minute, 200 ppm active ingredient, 24 days

| SMILES | Prevention value when inoculated with drug-sensitive strain (%) |
| --- | --- |
| CCOc1c(C)cc(NC(=S)OCCF)cc1C [Compound No. 9] | 0 |
| CCCCNC(=O)n1c(NC(=O)OC)nc2ccccc21 [Benomyl, methyl 1-(butylcarbamoyl)benzimidazol-2-ylcarba-mate] | 100 |

tested on: drug-resistant strain of Botrytis cinerea; assay: Preventive effect on gray mold of cucumber (Experiment 5), drug-resistant strain; details: cucumber seedlings, spray, 200 ppm active ingredient, mycelial disks, 20°C for 3 days
Experimental: as §2, §3
(§6) Preventive effect on gray mold of cucumber (Botrytis cinerea):-Plastic pots of 90 ml volume was filled with sandy soil, and seeds of cucumber (var: Sagami-hanjiro) were sowed therein. Cultivation was carried out in a greenhouse for 8 days to obtain cucumber seedlings expanding cotyledons. Onto the resulting seedlings, the test compound formulated in emulsifiable concentrate or wettable powder and diluted with water was sprayed at a rate of 10 ml per pot. […] After the plants were infected by incubating under high humidity at 20°C for 3 days, the rates of disease severity were observed.

| SMILES | Prevention value when inoculated with drug-resistant strain (%) |
| --- | --- |
| CCOc1c(Cl)cc(NC(=S)OC)cc1COC [Compound No. 13] | 100 |
| CCOc1c(C)cc(NC(=S)OCCF)cc1C [Compound No. 9] | 100 |
| CCOc1c(Cl)cc(NC(=S)OC(C)C)cc1COC [Compound No. 14, (3-chloro-4-ethoxy-5-methoxymethyl)thiocarbanilic acid O-isopropyl ester] | 100 |
| CCCCNC(=O)n1c(NC(=O)OC)nc2ccccc21 [Benomyl, methyl 1-(butylcarbamoyl)benzimidazol-2-ylcarba-mate] | 0 |

tested on: drug-sensitive strain of Botrytis cinerea; assay: Preventive effect on gray mold of cucumber (Experiment 5), drug-sensitive strain; details: cucumber seedlings, spray, 200 ppm active ingredient, mycelial disks, 20°C for 3 days
Experimental: as §2, §3, §6

| SMILES | Prevention value when inoculated with drug-sensitive strain (%) |
| --- | --- |
| CCOc1c(Cl)cc(NC(=S)OC)cc1COC [Compound No. 13] | 0 |
| CCOc1c(C)cc(NC(=S)OCCF)cc1C [Compound No. 9] | 0 |
| CCOc1c(Cl)cc(NC(=S)OC(C)C)cc1COC [Compound No. 14, (3-chloro-4-ethoxy-5-methoxymethyl)thiocarbanilic acid O-isopropyl ester] | 0 |
| CCCCNC(=O)n1c(NC(=O)OC)nc2ccccc21 [Benomyl, methyl 1-(butylcarbamoyl)benzimidazol-2-ylcarba-mate] | 100 |

tested on: drug-resistant strain of Cercospora arachidicola; assay: not given; details: peanut seedlings, spray, 200 ppm active ingredient, 10 days

| SMILES | Prevention value when inoculated with drug-resistant strain (%) |
| --- | --- |
| CCOc1c(Cl)cc(NC(=S)OC)cc1COC [Compound No. 13] | 97 |
| CCCCNC(=O)n1c(NC(=O)OC)nc2ccccc21 [Benomyl, methyl 1-(butylcarbamoyl)benzimidazol-2-ylcarba-mate] | 0 |

same assay, conditions: peanut seedlings, spray, 500 ppm active ingredient, 10 days

| SMILES | Prevention value when inoculated with drug-resistant strain (%) |
| --- | --- |
| CCOc1c(C)cc(NC(=S)OCCF)cc1C [Compound No. 9] | 100 |

tested on: drug-sensitive strain of Cercospora arachidicola; assay: not given; details: peanut seedlings, spray, 200 ppm active ingredient, 10 days

| SMILES | Prevention value when inoculated with drug-sensitive strain (%) |
| --- | --- |
| CCOc1c(Cl)cc(NC(=S)OC)cc1COC [Compound No. 13] | 0 |
| CCCCNC(=O)n1c(NC(=O)OC)nc2ccccc21 [Benomyl, methyl 1-(butylcarbamoyl)benzimidazol-2-ylcarba-mate] | 100 |

same assay, conditions: peanut seedlings, spray, 500 ppm active ingredient, 10 days

| SMILES | Prevention value when inoculated with drug-sensitive strain (%) |
| --- | --- |
| CCOc1c(C)cc(NC(=S)OCCF)cc1C [Compound No. 9] | 0 |

tested on: drug-resistant strain of Mycosphaerella melonis; assay: not given; details: cucumber seedlings, spray, 200 ppm active ingredient, 25°C for 4 days

| SMILES | Prevention value when inoculated with drug-resistant strain (%) |
| --- | --- |
| CCOc1c(Cl)cc(NC(=S)OC)cc1COC [Compound No. 13] | 100 |
| CCOc1c(C)cc(NC(=S)OCCF)cc1C [Compound No. 9] | 94 |
| CCOc1c(Cl)cc(NC(=S)OC(C)C)cc1COC [Compound No. 14, (3-chloro-4-ethoxy-5-methoxymethyl)thiocarbanilic acid O-isopropyl ester] | 100 |
| CCCCNC(=O)n1c(NC(=O)OC)nc2ccccc21 [Benomyl, methyl 1-(butylcarbamoyl)benzimidazol-2-ylcarba-mate] | 0 |

tested on: drug-sensitive strain of Mycosphaerella melonis; assay: not given; details: cucumber seedlings, spray, 200 ppm active ingredient, 25°C for 4 days

| SMILES | Prevention value when inoculated with drug-sensitive strain (%) |
| --- | --- |
| CCOc1c(Cl)cc(NC(=S)OC)cc1COC [Compound No. 13] | 0 |
| CCOc1c(C)cc(NC(=S)OCCF)cc1C [Compound No. 9] | 0 |
| CCOc1c(Cl)cc(NC(=S)OC(C)C)cc1COC [Compound No. 14, (3-chloro-4-ethoxy-5-methoxymethyl)thiocarbanilic acid O-isopropyl ester] | 0 |
| CCCCNC(=O)n1c(NC(=O)OC)nc2ccccc21 [Benomyl, methyl 1-(butylcarbamoyl)benzimidazol-2-ylcarba-mate] | 100 |

tested on: drug-resistant strain of Sphaerotheca fuliginea; assay: not given; details: Podosphaera fuliginea, in Cucumis sativus, 240 h, read-out: Prevention value when inoculated with drug-resistant strain (%)

| SMILES | pest or weed control at 200 ppm [%] |
| --- | --- |
| O=C(Nc1cccc(Cl)c1)OCC#CCCl | 25 |
| O=C(Nc1cccc(Cl)c1)OCCCl [CEPC] | 0 |
| CCOc1c(C)cc(NC(=S)OCCF)cc1C [Compound No. 9] | 100 |
| CCOc1c(Cl)cc(NC(=S)OC(C)C)cc1COC [Compound No. 14, (3-chloro-4-ethoxy-5-methoxymethyl)thiocarbanilic acid O-isopropyl ester] | 100 |
| CCCCNC(=O)n1c(NC(=O)OC)nc2ccccc21 [Benomyl, methyl 1-(butylcarbamoyl)benzimidazol-2-ylcarba-mate] | 0 |

tested on: drug-sensitive strain of Sphaerotheca fuliginea; assay: not given; details: Podosphaera fuliginea, in Cucumis sativus, 240 h, read-out: Prevention value when inoculated with drug-sensitive strain (%)

| SMILES | pest or weed control at 200 ppm [%] |
| --- | --- |
| O=C(Nc1cccc(Cl)c1)OCC#CCCl | 0 |
| O=C(Nc1cccc(Cl)c1)OCCCl [CEPC] | 0 |
| CCOc1c(C)cc(NC(=S)OCCF)cc1C [Compound No. 9] | 0 |
| CCOc1c(Cl)cc(NC(=S)OC(C)C)cc1COC [Compound No. 14, (3-chloro-4-ethoxy-5-methoxymethyl)thiocarbanilic acid O-isopropyl ester] | 0 |
| CCCCNC(=O)n1c(NC(=O)OC)nc2ccccc21 [Benomyl, methyl 1-(butylcarbamoyl)benzimidazol-2-ylcarba-mate] | 100 |

tested on: drug-resistant strain of Cercospora beticola; assay: not given; details: in Beta vulgaris, 240 h, read-out: Prevention value when inoculated with drug-resistant strain (%)

| SMILES | pest or weed control at 200 ppm [%] | pest or weed control at 500 ppm [%] |
| --- | --- | --- |
| O=C(Nc1cccc(Cl)c1)OCC#CCCl | 34 |  |
| O=C(Nc1cccc(Cl)c1)OCCCl [CEPC] | 0 |  |
| CCOc1c(C)cc(NC(=S)OCCF)cc1C [Compound No. 9] | 100 |  |
| CCOc1c(Cl)cc(NC(=S)OC(C)C)cc1COC [Compound No. 14, (3-chloro-4-ethoxy-5-methoxymethyl)thiocarbanilic acid O-isopropyl ester] |  | 100 |
| CCCCNC(=O)n1c(NC(=O)OC)nc2ccccc21 [Benomyl, methyl 1-(butylcarbamoyl)benzimidazol-2-ylcarba-mate] | 0 |  |

tested on: drug-sensitive strain of Cercospora beticola; assay: not given; details: in Beta vulgaris, 240 h, read-out: Prevention value when inoculated with drug-sensitive strain (%)

| SMILES | pest or weed control at 200 ppm [%] | pest or weed control at 500 ppm [%] |
| --- | --- | --- |
| O=C(Nc1cccc(Cl)c1)OCC#CCCl | 0 |  |
| O=C(Nc1cccc(Cl)c1)OCCCl [CEPC] | 0 |  |
| CCOc1c(C)cc(NC(=S)OCCF)cc1C [Compound No. 9] | 0 |  |
| CCOc1c(Cl)cc(NC(=S)OC(C)C)cc1COC [Compound No. 14, (3-chloro-4-ethoxy-5-methoxymethyl)thiocarbanilic acid O-isopropyl ester] |  | 0 |
| CCCCNC(=O)n1c(NC(=O)OC)nc2ccccc21 [Benomyl, methyl 1-(butylcarbamoyl)benzimidazol-2-ylcarba-mate] | 100 |  |
